Experimental data taken from patent publication US20090062122A1, “Cotton Growth Regulator” (FMC Corporation, priority 2006, published 2009).

Key:
Type in all cases: in vivo
cotton, variety D&PL 555 [1] = experiment: % terminal control of cotton plants, field trial
Protocol: (§1) The trial was performed on cotton, variety D&PL 555. The formulated test compounds were diluted to the appropriate concentrations with water to which a crop oil concentrate (1% to 2% v/v) or a non-ionic surfactant (0.25% v/v) was added. The application of the test composition as a cotton plant growth regulator was performed using pressurized, over-the-top spray equipment consisting of a research scale boom sprayer. Deposit of the test composition was primarily to the top of the cotton plants, minimizing spray deposition to lower branches, leaves and fruit. The finished spray volume was 10 gallons per acre, with sprayer nozzle design, orientation and nozzle pressures chosen to prevent spray drift. Applications were made at first sign of cotton boll opening and at 15%, 20% and 40% open bolls.
(§2) The experimental design used randomized plots with 1 to 4 treatment rates of test composition and from 1 to 10 replications depending on the test (sees tables below). The size of each experimental plot was about 15 m^2. Testing was performed in Texas, North Carolina, Mississippi and Georgia.
(§3) Percent desiccation, percent defoliation, percent terminal control and percent open bolls were evaluated at 7 and 14 days after application (DAA) of the test composition. Inspection of cotton plants for insect control of armyworm larvae was performed at 2 DAA and insect damage to bolls was performed at the time of harvest
Terminal control refers to crop response to the top-most vertical bud and shoots growth. Percent terminal control estimates the proportion of these upper-most growth structures desiccated per 100 cotton plants. Fifty cotton plants in two representative locations within a treatment plot were chosen to determine percent control. Each terminal of the 50 plants in the 2 locations was evaluated, and the total number desiccated per 100 plants was recorded as percent terminal control.
(§4) The results, shown as the mean of the indicated number of replications, were compared with results observed in the same trials with an untreated control.

cotton, variety D&PL 555 [2] = experiment: % defoliation of cotton plants, field trial
Protocol: as §1, §2, §3
Defoliation refers to removal of leaves. Percent defoliation rating approximates the proportion of leaves of all sizes shed per 100 leaves present prior to application of the cotton growth regulator compound. An evaluation of the foliage in the untreated check plots was first undertaken. Then the test plots were individually evaluated. The percent of leaves dropped by the plants in the treated plot was determined using observations within the plot and comparisons to foliage in the untreated plot.
as §4

cotton, variety D&PL 555 [3] = experiment: % open bolls of cotton plants, field trial; conditions: 14 DAA
Protocol: as §1, §2, §3
Open bolls refers to the number of bolls which have opened per 100 cotton plants. Fifty cotton plants in two representative locations within a treatment plot were chosen to examine for open bolls. The percent of open bolls was calculated by dividing the number of open bolls by the total number of bolls on the plants multiplied by 100.
as §4

Bollworm (Heliothis zea) = experiment: % bolls damaged by bollworm at harvest; conditions: 15% open boll application, 0.006 lb ai/a, 1 replicate
Protocol: as §1, with “bolls. […]” for “bolls.”
(§5) Percent desiccation, percent defoliation, percent terminal control and percent open bolls were evaluated at 7 and 14 days after application (DAA) of the test composition. […]
(§6) Bollworm (Heliothis zea) and stinkbug (Euschistus servus) insect control was measured by examining the bolls of 100 cotton plants, 50 cotton plants in two representative locations with in the treatment plot, for injury caused by either bollworms or by stinkbugs. The percent damage was calculated by dividing the number of damaged bolls by the total number of bolls on the plants multiplied by 100. […]

[4] = test system: Brown Stinkbug (Euschistus servus); experiment: % bolls damaged by brown stinkbug at harvest; conditions: 15% open boll application, 0.006 lb ai/a, 1 replicate
Protocol: as §1, with “bolls. […]” for “bolls.”
as §5, §6

[5] = test system: Fall Armyworms (Spodoptera frugiperda); experiment: Number of fall armyworms on cotton plants; conditions: 15% open boll application; 0.004 lb ai/a; 2 DAA; 3 replicates; insects per plant
Protocol: as §1
The experimental design used randomized plots with 1 to 4 treatment rates of test composition and from 1 to 10 replications depending on the test (sees tables below). […]
as §5
The presence of fall armyworms (Spodoptera frugiperda) was determined by examining 20 cotton plants within each of 3 replicates of the treatment plots for fall armyworm. The number of insects per plant was calculated by dividing the total number of insects found by 60. […]

cotton, variety D&PL 555 [6] = experiment: Cotton yield; conditions: 5 replicates
Protocol: as §1, §2, §4

Q: What does the source list for `CCOC(=O)C(Cl)Cc1cc(-n2nc(C)n(C(F)F)c2=O)c(F)cc1Cl` (stereo not drawn) [carfentrazone-ethyl, ethyl 2-chloro-3-[2-chloro-5-(4-difluoromethyl-3-methyl-5-oxo-4,5-dihydro-[1,2,4]-triazol-1-yl)-4-fluorophenyl]propionate]?
A: % Terminal Control (cotton, variety D&PL 555 [1]; 15% open boll application, 0.004 lb ai/a, 14 DAA, 9 replicates): 63%; % Terminal Control (cotton, variety D&PL 555 [1]; 15% open boll application, 0.006 lb ai/a, 14 DAA, 9 replicates): 74%; % Terminal Control (cotton, variety D&PL 555 [1]; 15% open boll application, 0.008 lb ai/a, 14 DAA, 9 replicates): 79%; % Terminal Control (cotton, variety D&PL 555 [1]; 15% open boll application, 0.01 lb ai/a, 14 DAA, 9 replicates): 82%; % Terminal Control (cotton, variety D&PL 555 [1]; 20% open boll application, 0.002 lb ai/a, 7 DAA, 2 replicates): 50%; % Terminal Control (cotton, variety D&PL 555 [1]; 20% open boll application, 0.002 lb ai/a, 14 DAA, 2 replicates): 49%; % Terminal Control (cotton, variety D&PL 555 [1]; 20% open boll application, 0.004 lb ai/a, 7 DAA, 2 replicates): 67%; % Terminal Control (cotton, variety D&PL 555 [1]; 20% open boll application, 0.004 lb ai/a, 14 DAA, 2 replicates): 64%; % Terminal Control (cotton, variety D&PL 555 [1]; 20% open boll application, 0.006 lb ai/a, 7 DAA, 2 replicates): 66%; % Terminal Control (cotton, variety D&PL 555 [1]; 20% open boll application, 0.006 lb ai/a, 14 DAA, 2 replicates): 64%; % Terminal Control (cotton, variety D&PL 555 [1]; 20% open boll application, 0.008 lb ai/a, 7 DAA, 2 replicates): 60%; % Terminal Control (cotton, variety D&PL 555 [1]; 20% open boll application, 0.008 lb ai/a, 14 DAA, 2 replicates): 63%; % Terminal Control (cotton, variety D&PL 555 [1]; first open boll application, 0.002 lb ai/a, 7 DAA, 3 replicates): 27%; % Terminal Control (cotton, variety D&PL 555 [1]; first open boll application, 0.002 lb ai/a, 14 DAA, 3 replicates): 44%; % Terminal Control (cotton, variety D&PL 555 [1]; first open boll application, 0.004 lb ai/a, 7 DAA, 3 replicates): 46%; % Terminal Control (cotton, variety D&PL 555 [1]; first open boll application, 0.004 lb ai/a, 14 DAA, 3 replicates): 58%; % Terminal Control (cotton, variety D&PL 555 [1]; first open boll application, 0.006 lb ai/a, 7 DAA, 3 replicates): 47%; % Terminal Control (cotton, variety D&PL 555 [1]; first open boll application, 0.006 lb ai/a, 14 DAA, 3 replicates): 59%; % Terminal Control (cotton, variety D&PL 555 [1]; first open boll application, 0.008 lb ai/a, 7 DAA, 3 replicates): 50%; % Terminal Control (cotton, variety D&PL 555 [1]; first open boll application, 0.008 lb ai/a, 14 DAA, 3 replicates): 58%; % Defoliation (cotton, variety D&PL 555 [2]; 15% open boll application, 0.004 lb ai/a, 14 DAA, 10 replicates): 28%; % Defoliation (cotton, variety D&PL 555 [2]; 15% open boll application, 0.006 lb ai/a, 14 DAA, 10 replicates): 33%; % Defoliation (cotton, variety D&PL 555 [2]; 15% open boll application, 0.008 lb ai/a, 14 DAA, 10 replicates): 39%; % Defoliation (cotton, variety D&PL 555 [2]; 15% open boll application, 0.01 lb ai/a, 14 DAA, 10 replicates): 41%; % Defoliation (cotton, variety D&PL 555 [2]; 20% open boll application, 0.002 lb ai/a, 7 DAA, 3 replicates): 9%; % Defoliation (cotton, variety D&PL 555 [2]; 20% open boll application, 0.002 lb ai/a, 14 DAA, 3 replicates): 17%; % Defoliation (cotton, variety D&PL 555 [2]; 20% open boll application, 0.004 lb ai/a, 7 DAA, 3 replicates): 25%; % Defoliation (cotton, variety D&PL 555 [2]; 20% open boll application, 0.004 lb ai/a, 14 DAA, 3 replicates): 38%; % Defoliation (cotton, variety D&PL 555 [2]; 20% open boll application, 0.006 lb ai/a, 7 DAA, 3 replicates): 22%; % Defoliation (cotton, variety D&PL 555 [2]; 20% open boll application, 0.006 lb ai/a, 14 DAA, 3 replicates): 34%; % Defoliation (cotton, variety D&PL 555 [2]; 20% open boll application, 0.008 lb ai/a, 7 DAA, 3 replicates): 24%; % Defoliation (cotton, variety D&PL 555 [2]; 20% open boll application, 0.008 lb ai/a, 14 DAA, 3 replicates): 36%; % Defoliation (cotton, variety D&PL 555 [2]; 40% open boll application, 0.004 lb ai/a, 7 DAA, 1 replicate): 61%; % Defoliation (cotton, variety D&PL 555 [2]; 40% open boll application, 0.006 lb ai/a, 7 DAA, 1 replicate): 58%; % Defoliation (cotton, variety D&PL 555 [2]; 40% open boll application, 0.008 lb ai/a, 7 DAA, 1 replicate): 67%; % Defoliation (cotton, variety D&PL 555 [2]; first open boll application, 0.002 lb ai/a, 7 DAA, 4 replicates): 6%; % Defoliation (cotton, variety D&PL 555 [2]; first open boll application, 0.002 lb ai/a, 14 DAA, 4 replicates): 15%; % Defoliation (cotton, variety D&PL 555 [2]; first open boll application, 0.004 lb ai/a, 7 DAA, 4 replicates): 12%; % Defoliation (cotton, variety D&PL 555 [2]; first open boll application, 0.004 lb ai/a, 14 DAA, 4 replicates): 25%; % Defoliation (cotton, variety D&PL 555 [2]; first open boll application, 0.006 lb ai/a, 7 DAA, 4 replicates): 13%; % Defoliation (cotton, variety D&PL 555 [2]; first open boll application, 0.006 lb ai/a, 14 DAA, 4 replicates): 28%; % Defoliation (cotton, variety D&PL 555 [2]; first open boll application, 0.008 lb ai/a, 7 DAA, 4 replicates): 12%; % Defoliation (cotton, variety D&PL 555 [2]; first open boll application, 0.008 lb ai/a, 14 DAA, 4 replicates): 23%; % Open Bolls (cotton, variety D&PL 555 [3]; 15% open boll application, 0.004 lb ai/a, 10 replicates): 59%; % Open Bolls (cotton, variety D&PL 555 [3]; 15% open boll application, 0.006 lb ai/a, 10 replicates): 61%; % Open Bolls (cotton, variety D&PL 555 [3]; 15% open boll application, 0.008 lb ai/a, 10 replicates): 64%; % Open Bolls (cotton, variety D&PL 555 [3]; 15% open boll application, 0.01 lb ai/a, 10 replicates): 63%; % Open Bolls (cotton, variety D&PL 555 [3]; 20% open boll application, 0.002 lb ai/a, 3 replicates): 62%; % Open Bolls (cotton, variety D&PL 555 [3]; 20% open boll application, 0.004 lb ai/a, 3 replicates): 62%; % Open Bolls (cotton, variety D&PL 555 [3]; 20% open boll application, 0.006 lb ai/a, 3 replicates): 67%; % Open Bolls (cotton, variety D&PL 555 [3]; 20% open boll application, 0.008 lb ai/a, 3 replicates): 62%; % Open Bolls (cotton, variety D&PL 555 [3]; first open boll application, 0.002 lb ai/a, 3 replicates): 61%; % Open Bolls (cotton, variety D&PL 555 [3]; first open boll application, 0.004 lb ai/a, 3 replicates): 58%; % Open Bolls (cotton, variety D&PL 555 [3]; first open boll application, 0.006 lb ai/a, 3 replicates): 63%; % Open Bolls (cotton, variety D&PL 555 [3]; first open boll application, 0.008 lb ai/a, 3 replicates): 68%; % Bolls Damaged by Bollworm (Heliothis zea) (Bollworm (Heliothis zea)): 1.75%; % Bolls Damaged by Brown Stinkbug (Euschistus servus) [4]: 2.25%; Number of insects (Fall Armyworms, Spodoptera frugiperda) [5]: 0; Cotton yield (cotton, variety D&PL 555 [6]; 20% open bolls application, 0.002 lb ai/a): 1168 Lb lint/Acre; Cotton yield (cotton, variety D&PL 555 [6]; 20% open bolls application, 0.004 lb ai/a): 1128 Lb lint/Acre; Cotton yield (cotton, variety D&PL 555 [6]; 20% open bolls application, 0.006 lb ai/a): 1107 Lb lint/Acre; Cotton yield (cotton, variety D&PL 555 [6]; 20% open bolls application, 0.008 lb ai/a): 1178 Lb lint/Acre; Cotton yield (cotton, variety D&PL 555 [6]; first open boll application, 0.002 lb ai/a): 1172 Lb lint/Acre; Cotton yield (cotton, variety D&PL 555 [6]; first open boll application, 0.004 lb ai/a): 1004 Lb lint/Acre; Cotton yield (cotton, variety D&PL 555 [6]; first open boll application, 0.006 lb ai/a): 1152 Lb lint/Acre; Cotton yield (cotton, variety D&PL 555 [6]; first open boll application, 0.008 lb ai/a): 1167 Lb lint/Acre
